For five molecules, IC50 results are on record in patent US20200069686A1, “N-SUBSTITUTED INDOLE DERIVATIVES” (Idorsia Pharmaceuticals Ltd, priority 2017, published 2020).

Usually IC50 stands for the concentration that gives 50% inhibition.

Holding throughout (assay type): cell-based
In one experiment the target is T1, PTRGER4 (EP4) (Homo sapiens, UniProt P35408).
T1 construct: host or cells: HEK 293 (PathHunter PTGER4 b-arrestin cell line)
Briefly: hEP4 b-arrestin assay (PathHunter HEK 293 PTGER4 b-arrestin cells). The conditions noted are these: PGE2 20 nM (EC80) as agonist, antagonistic activity, read-out: hEP4 beta-arrestin IC50. The procedure: (§1) The antagonistic activities of the compounds of formula (I) on the EP2 and EP4 receptors are determined in accordance with the following experimental methods.
(§2) The assay is using the PathHunter™ HEK 293 PTGER2 and PTGER4 b-arrestin cell lines from DiscoverX. The system is based on the Enzyme Fragment Complementation Technology. Two complementing fragments of the b-galactosidase enzyme are expressed within stably transfected cells. The larger portion of b-gal, termed EA for Enzyme Acceptor, is fused to the C-terminus of b-arrestin 2. The smaller fragment, termed ProLink™ tag, is fused to PTGER2 (EP2) or PTRGER4 (EP4) at the C-terminus. Upon activation, b-arrestin is recruited which forces the interaction of ProLink and EA, allowing complementation of the two fragments of b-gal and the formation of a functional enzyme which is capable of hydrolysing the substrate and generating a chemiluminescent signal.
The HEK 293 PTGER4 b-arrestin cells (DiscoverX 93-030-4C1) are detached from culture dishes with a cell dissociation buffer (Invitrogen, 13151-014), and collected in growing medium (GM: DMEM+Glutamax-I (Invitrogen 32430)/10% FCS, 1% Penicilin/streptomycin). 5000 cells per well of a 384 well plate (white with white bottom Greiner 781080) are seeded in 20 μl per well of GM. Plate is incubated at 37° C., 5% CO2 for 24 hours.
(§3) Stock solutions of test compounds are made at a concentration of 10 mM in DMSO, and serially diluted in DMSO to concentrations required for inhibition dose response curves (tested concentration range 10 μM-2 nM or 1 μM-0.2 nM).
PGE2 (Cayman 14010, stock solution: 100 uM in DMSO) is used as agonist at 20 nM final concentration, corresponding to EC80.
Five microliters of diluted compounds are transferred into the assay plate. Plate is pre-incubated 15 minutes at 37° C. Then five microliters of PGE2 (final conc. 20 nM) are transferred into the assay plate. Plate is incubated 120 minutes at 37° C.
PathHunter Glo Detection Kit components are thawed and mix according to manufacturers instructions: 1 part Galacton Star Substrate with 5 parts Emerald II™ Solution, and 19 parts of PathHunter Cell Assay Buffer, respectively. Twelve I of reagent are transferred to the assay plate and incubate for 1 hour at room temperature in the dark. Luminescence counts are read on a BMG Fluostar Optima reader according to manufacturers instructions.
(§4) For each compound concentration calculate of the percentage of activity compared to DMSO control value as average ±STDEV. (each concentration is measured in duplicate)
(§5) IC50 values and curves are generated with XLfit software (IDBS) using Dose-Response One Site model 203. When compounds were measured multiple times, mean values are given.

Another experiment deals with T2, EP2 (Homo sapiens, UniProt P43116).
T2 construct: SF295 glioblastoma cells express high endogenous EP2 and no EP4; endogenous in cells; host or cells: SF295 glioblastoma cells (NCI No. 0503170)
Briefly: hEP2 cAMP assay (SF295 glioblastoma cells, HTRF cAMP). The conditions noted are these: PGE2 75 nM (EC80) as agonist, antagonistic activity. How it is done:
(§6) The antagonistic activities of the compounds of formula (I) on the EP2 and EP4 receptors are also determined in accordance with the following experimental method.
(§7) Human tumor cell lines expressing endogenously either EP4 or EP2 are used and cAMP accumulation in cells upon PGE2 stimulation is monitored. SF295 glioblastoma cells express high endogenous EP2 and no EP4,whereas BT549 breast cancer cells, express high endogenous EP4 levels and very low EP2 levels.
(§8) As a detection method for cAMP the HTRF (homogeneous time resolved fluorescence) Cisbio kit (HTRF cAMP dynamic 2 kit 20′000 tests Cisbio Cat. #62AM4PEC) was used, which is based on a competitive immunoassay using a Cryptate-labeled anti-cAMP antibody and d2-labeled cAMP. Native cAMP produced by cells or unlabeled cAMP (for the standard curve) compete with exogenously added d2-labeled cAMP (acceptor) for binding to monoclonal anti-cAMP-Eu3+ Cryptate (donor). A FRET signal (Fluorescence Resonance Energy Transfer) is obtained only if the labeled anti-cAMP antibody binds the d2 labelled cAMP, thus the specific signal (i.e. energy transfer) is inversely proportional to the concentration of cAMP in the standard or sample.
The SF295 cells (NCl/No. 0503170) are detached from culture dishes with a cell dissociation buffer (Invitrogen, 13151-014), and collected in growing medium (GM: RPM11640 (Invitrogen 21875)/10% FCS, 1% Penicilin/streptomycin). Cells are counted washed and resuspended in assay buffer (AB; HBSS, 20 mM HEPES, 0.2% BSA; 2 mM IBMX). 4′000 cells in 5 μL of AB are seeded per well of a small volume 384 well plate (black with flat bottom, Greiner 784076).
Stock solutions of test compounds are made at a concentration of 10 mM in DMSO, and serially diluted in DMSO to concentrations required for inhibition dose response curves (tested concentration range 30 μM-0.4 nM; […] or 1 μM-0.01 nM).
PGE2 (Cayman 14010, stock solution: […] in DMSO) is used as agonist at 75 nM final concentration, corresponding to EC80.
2.5 μL of diluted compounds are transferred into the assay plate. […] Five I of each donor (anti-cAMP cryptate) and acceptor (cAMP-d2) are added and the plate is incubated another hour at room temperature in the dark and then read using a BMG LABTECH PHERAstar reader (Excitation: 337 nm, Emission: 620 and 665 nm).
(§9) The obtained Delta F (fluorescence) values (665 nm/620 nM) are converted into % cAMP values using the measurements of the cAMP calibrator provided in the kit. For each compound concentration the percentage of cAMP compared to DMSO control value as average ±STDEV (each concentration is measured in duplicate) is calculated.
as §5

The next experiment has as its target T3, EP4 (Homo sapiens, UniProt P35408).
T3 construct: BT549 breast cancer cells, express high endogenous EP4 levels and very low EP2 levels; endogenous in cells; host or cells: BT549 breast cancer cells (NCI No. 0507282)
Briefly: hEP4 cAMP assay (BT549 breast cancer cells, HTRF cAMP). The conditions noted are these: PGE2 6 nM (EC80) as agonist, antagonistic activity. The procedure:
as §6, §7, §8
The BT549 cells (NCl/No. 0507282) are detached from culture dishes with a cell dissociation buffer (Invitrogen, 13151-014), and collected in growing medium (GM: RPM11640 (Invitrogen 21875)/10% FCS, 1% Penicilin/streptomycin). Cells are counted washed and resuspended in assay buffer (AB; HBSS, 20 mM HEPES, 0.2% BSA; 2 mM IBMX). 4′000 cells in 5 μL of AB are seeded per well of a small volume 384 well plate (black with flat bottom, Greiner 784076).
Stock solutions of test compounds are made at a concentration of 10 mM in DMSO, and serially diluted in DMSO to concentrations required for inhibition dose response curves (tested concentration range 30 μM-0.4 nM; 30 μM-0.015 nM or 1 μM-0.01 nM).
PGE2 (Cayman 14010, stock solution: 6 μM in DMSO) is used as agonist at 6 nM final concentration, corresponding to EC80.
2.5 μL of diluted compounds are transferred into the assay plate. […] Five μL of each donor (anti-cAMP cryptate) and acceptor (cAMP-d2) are added and the plate is incubated another hour at room temperature in the dark and then read using a BMG LABTECH PHERAstar reader (Excitation: 337 nm, Emission: 620 and 665 nm).
as §9, §5

Another experiment deals with T4, PTGER2 (EP2) (Homo sapiens, UniProt P43116).
T4 construct: host or cells: HEK 293 (PathHunter PTGER2 b-arrestin cell line)
As to the kind of experiment: hEP2 b-arrestin assay (PathHunter HEK 293 PTGER2 b-arrestin cells). The conditions noted are these: PGE2 5 μM (EC80) as agonist, antagonistic activity, read-out: hEP2 beta-arrestin IC50. How it is done:
as §1, §2
The HEK 293 PTGER2 b-arrestin cells (DiscoverX 93-021-4C1) are detached from culture dishes with a cell dissociation buffer (Invitrogen, 13151-014), and collected in growing medium (GM: DMEM+Glutamax-I (Invitrogen 32430)/10% FCS, 1% Penicilin/streptomycin). 5000 cells per well of a 384 well plate (white with white bottom Greiner 781080) are seeded in 20 ul per well of GM. Plate is incubated at 37° C., 5% CO2 for 24 hours.
as §3
PGE2 (Cayman 14010, stock solution: 10 mM in DMSO) is used as agonist at 5 μM final concentration, corresponding to EC80.
Five microliters of diluted compounds are transferred into the assay plate. Plate is pre-incubated 15 minutes at 37° C. Then five microliters of PGE2 (final conc. 5 μM) are transferred into the assay plate. Plate is incubated 120 minutes at 37° C.
PathHunter Glo Detection Kit components are thawed and mix according to manufacturers instructions: 1 part Galacton Star Substrate with 5 parts Emerald II™ Solution, and 19 parts of PathHunter Cell Assay Buffer, respectively. Twelve μL of reagent are transferred to the assay plate and incubate for 1 hour at room temperature in the dark. Luminescence counts are read on a BMG Fluostar Optima reader according to manufacturers instructions.
as §4, §5

T4 sequence (P43116 whole entry): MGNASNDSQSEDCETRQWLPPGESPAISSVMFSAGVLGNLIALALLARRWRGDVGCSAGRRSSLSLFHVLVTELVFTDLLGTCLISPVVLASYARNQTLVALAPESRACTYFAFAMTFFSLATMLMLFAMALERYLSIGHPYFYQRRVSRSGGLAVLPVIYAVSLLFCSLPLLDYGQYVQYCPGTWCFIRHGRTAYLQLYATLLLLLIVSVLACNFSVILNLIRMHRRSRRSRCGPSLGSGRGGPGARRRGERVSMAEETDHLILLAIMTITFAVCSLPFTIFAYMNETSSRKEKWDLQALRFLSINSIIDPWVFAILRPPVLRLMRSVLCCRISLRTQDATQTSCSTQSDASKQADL
T2 sequence (P43116 whole entry): as above
T3 sequence (P35408 whole entry): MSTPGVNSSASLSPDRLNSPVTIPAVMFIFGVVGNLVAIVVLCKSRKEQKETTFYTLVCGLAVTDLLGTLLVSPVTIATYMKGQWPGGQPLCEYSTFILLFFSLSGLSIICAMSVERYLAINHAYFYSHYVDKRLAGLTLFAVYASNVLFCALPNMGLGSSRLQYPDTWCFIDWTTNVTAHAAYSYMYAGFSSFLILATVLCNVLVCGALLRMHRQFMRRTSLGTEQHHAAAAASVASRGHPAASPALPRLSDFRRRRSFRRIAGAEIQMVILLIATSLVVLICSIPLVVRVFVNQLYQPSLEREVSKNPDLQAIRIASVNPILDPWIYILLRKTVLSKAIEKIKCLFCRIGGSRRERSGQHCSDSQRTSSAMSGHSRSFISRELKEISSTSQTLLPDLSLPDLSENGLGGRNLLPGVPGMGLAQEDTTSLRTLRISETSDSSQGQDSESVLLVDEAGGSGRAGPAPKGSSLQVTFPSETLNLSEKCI
T1 sequence (P35408 whole entry): as above

With `Cc1cccc2cc(C)n(CCNc3cc(-c4ccc(C(=O)O)cc4)ncn3)c12` [Example 3, 4-{6-[2-(2,7-Dimethyl-indol-1-yl)-ethylamino]-pyrimidin-4-yl}-benzoic acid], the IC50 turned out to be 11 µM at PTRGER4 (EP4), 0.005 µM on EP2, 5.66 µM on EP4 and 0.008 µM at PTGER2 (EP2).
For `Cc1cc2ccccc2n1CCNc1cc(-c2ccc(C(=O)O)cc2)ncn1` [Example 1, 4-{6-[2-(2-Methyl-indol-1-yl)-ethylamino]-pyrimidin-4-yl}-benzoic acid] the same measures were 5.97 µM, 0.015 µM, 5.72 µM and 0.013 µM.
For `N#Cc1cc2ccccc2n1CCNc1cc(-c2ccc(C(=O)O)cc2)ncn1` [Example 2, 4-{6-[2-(2-Cyano-indol-1-yl)-ethylamino]-pyrimidin-4-yl}-benzoic acid] the same measures were 2.06 µM, 0.01 µM, 1.35 µM and 0.011 µM.
In the case of `O=C(O)c1ccc(-c2cc(NCCn3c(Br)cc4ccccc43)ncn2)cc1` [Example 5, 4-{6-[2-(2-Bromo-indol-1-yl)-ethylamino]-pyrimidin-4-yl}-benzoic acid], the IC50 turned out to be 4.97 µM at PTRGER4 (EP4) and 0.017 µM on PTGER2 (EP2).
Turning to `O=C(O)c1ccc(-c2cc(NCCn3c(Cl)cc4ccccc43)ncn2)cc1` [Example 4, 4-{6-[2-(2-Chloro-indol-1-yl)-ethylamino]-pyrimidin-4-yl}-benzoic acid], the IC50 is 2.96 µM on PTRGER4 (EP4), 0.002 µM on EP2, 2.61 µM at EP4 and 0.003 µM at PTGER2 (EP2).
